The values below come from ChEMBL document CHEMBL5550132, “Structure-activity relationship in NOD2 agonistic muramyl dipeptides” (Eur J Med Chem, 2024).

Assay [1] addresses T1, Nuclear factor NF-kappa-B complex (Homo sapiens) (UniProt Q00653+P19838+Q04206). The experiment in a line: Activation of NF-KappaB (unknown origin) expressed in HEK293T cells assessed as fold change at 10 ng incubated for 12 hrs by Renilla luciferase assay. Format: cell-based. As to conditions: filed as activator.
For assay [2], the target named is T1, Nuclear factor NF-kappa-B complex (Homo sapiens). Kind of assay: Activation of NF-KappaB (unknown origin) expressed in HEK293T cells assessed as fold change at 100 ng incubated for 12 hrs by Renilla luciferase assay. As to conditions: filed as activator. Format: cell-based.
Assay [3] has the same target. The experiment in a line: Activation of NF-KappaB (unknown origin) expressed in HEK293T cells assessed as fold change at 1000 ng incubated for 12 hrs by Renilla luciferase assay. Conditions: filed as activator. Format: cell-based.
Assay [4] shares this target. The experiment in a line: Activation of NF-KappaB in HEK293T cells assessed as fold change. The format is cell-based. Conditions: filed as activator.
Assay [5] is filed under the species Cavia porcellus. Kind of assay: Induction of delayed type hypersensitivity in ABA-BSA immunized Hartley Guinea pigs assessed as reduction in skin lesions at 100 ug measured for 24 hrs. Conditions: dose 100 µg. Format: functional.
The species named for assay [6] is Cavia porcellus. Kind of assay: Induction of delayed type hypersensitivity in ABA-BSA immunized Hartley Guinea pigs assessed as reduction in skin lesions at 100 ug measured for 48 hrs. The format is functional. As to conditions: dose 100 µg.
Assay [7] has as its target T1, Nuclear factor NF-kappa-B complex (Homo sapiens). Kind of assay: Activation of NF-kappaB in HEK-Blue hNOD2 cells assessed as fold change at 10 nM incubated for 48 hrs by SEAP reporter assay. The format is cell-based. Conditions: filed as activator. On the technique in general: Reporter assays use an easily measured gene product as a stand-in for the process of interest.

Assay [8] shares this target. Kind of assay: Activation of NF-kappaB in HEK-Blue hNOD2 cells assessed as fold change at 100 nM incubated for 48 hrs by SEAP reporter assay. Format: cell-based. As to conditions: filed as activator.
For assay [9] the target is unchanged. The experiment in a line: Activation of NF-kappaB in HEK-Blue hNOD2 cells assessed as fold change at 1000 nM incubated for 48 hrs by SEAP reporter assay. Format: cell-based. Conditions: filed as activator.
The target in assay [10] is Nucleotide-binding oligomerization domain-containing protein 2 (Homo sapiens, UniProt Q9HC29). The experiment in a line: Agonist activity at NOD2 (unknown origin).
Nucleotide-binding oligomerization domain-containing protein 2, sequence (Q9HC29 whole entry, the tested form may be a part): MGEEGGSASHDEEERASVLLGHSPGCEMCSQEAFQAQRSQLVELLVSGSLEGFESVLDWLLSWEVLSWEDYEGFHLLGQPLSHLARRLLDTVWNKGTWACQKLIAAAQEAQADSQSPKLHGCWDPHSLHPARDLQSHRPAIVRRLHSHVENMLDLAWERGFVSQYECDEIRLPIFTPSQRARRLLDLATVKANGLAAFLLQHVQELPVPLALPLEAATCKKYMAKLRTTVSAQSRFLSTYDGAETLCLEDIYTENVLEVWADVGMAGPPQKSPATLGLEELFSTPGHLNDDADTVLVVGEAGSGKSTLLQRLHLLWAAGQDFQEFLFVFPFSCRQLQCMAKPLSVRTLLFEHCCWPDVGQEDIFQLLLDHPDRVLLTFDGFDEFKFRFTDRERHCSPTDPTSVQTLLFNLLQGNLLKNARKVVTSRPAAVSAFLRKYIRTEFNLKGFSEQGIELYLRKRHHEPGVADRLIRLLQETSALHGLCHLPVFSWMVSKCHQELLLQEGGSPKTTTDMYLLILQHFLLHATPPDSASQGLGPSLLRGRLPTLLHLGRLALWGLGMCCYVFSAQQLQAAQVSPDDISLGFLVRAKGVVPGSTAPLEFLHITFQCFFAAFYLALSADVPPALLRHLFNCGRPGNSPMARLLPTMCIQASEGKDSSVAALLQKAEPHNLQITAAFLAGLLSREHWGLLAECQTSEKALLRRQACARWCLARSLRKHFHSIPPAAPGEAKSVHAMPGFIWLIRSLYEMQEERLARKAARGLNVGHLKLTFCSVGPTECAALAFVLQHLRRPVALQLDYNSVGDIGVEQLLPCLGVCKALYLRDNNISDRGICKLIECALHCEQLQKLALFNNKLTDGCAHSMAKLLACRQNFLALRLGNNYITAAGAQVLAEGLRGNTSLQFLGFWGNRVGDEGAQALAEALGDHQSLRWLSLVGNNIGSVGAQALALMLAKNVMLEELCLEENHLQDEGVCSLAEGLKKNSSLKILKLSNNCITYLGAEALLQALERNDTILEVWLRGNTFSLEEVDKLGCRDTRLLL

T1 sequence (P19838 whole entry, looked up): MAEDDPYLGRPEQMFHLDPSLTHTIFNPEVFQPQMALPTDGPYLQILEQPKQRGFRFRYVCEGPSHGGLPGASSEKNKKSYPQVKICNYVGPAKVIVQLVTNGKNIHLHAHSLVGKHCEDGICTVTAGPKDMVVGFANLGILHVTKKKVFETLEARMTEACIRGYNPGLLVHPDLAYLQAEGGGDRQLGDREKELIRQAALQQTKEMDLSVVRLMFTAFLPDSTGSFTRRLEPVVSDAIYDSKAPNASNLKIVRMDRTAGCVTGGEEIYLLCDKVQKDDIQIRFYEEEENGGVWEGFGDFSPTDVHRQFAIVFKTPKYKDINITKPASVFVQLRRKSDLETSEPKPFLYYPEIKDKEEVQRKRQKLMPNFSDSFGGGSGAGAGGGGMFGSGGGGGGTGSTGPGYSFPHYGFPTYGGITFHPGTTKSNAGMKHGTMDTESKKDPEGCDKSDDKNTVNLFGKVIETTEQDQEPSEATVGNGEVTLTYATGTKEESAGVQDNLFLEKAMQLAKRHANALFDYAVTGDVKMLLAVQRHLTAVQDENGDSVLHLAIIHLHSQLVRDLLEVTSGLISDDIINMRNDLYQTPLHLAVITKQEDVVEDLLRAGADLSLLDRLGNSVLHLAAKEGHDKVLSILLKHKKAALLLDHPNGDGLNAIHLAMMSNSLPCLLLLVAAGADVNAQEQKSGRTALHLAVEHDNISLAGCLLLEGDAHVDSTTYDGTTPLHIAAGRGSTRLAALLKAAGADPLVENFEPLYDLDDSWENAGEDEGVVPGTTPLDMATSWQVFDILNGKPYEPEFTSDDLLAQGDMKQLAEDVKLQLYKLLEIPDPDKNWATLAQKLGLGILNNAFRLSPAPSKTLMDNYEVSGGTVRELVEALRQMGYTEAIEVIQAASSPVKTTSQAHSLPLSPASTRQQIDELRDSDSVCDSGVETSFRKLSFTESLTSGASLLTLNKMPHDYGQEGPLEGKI
T1 sequence (Q00653 whole entry, looked up): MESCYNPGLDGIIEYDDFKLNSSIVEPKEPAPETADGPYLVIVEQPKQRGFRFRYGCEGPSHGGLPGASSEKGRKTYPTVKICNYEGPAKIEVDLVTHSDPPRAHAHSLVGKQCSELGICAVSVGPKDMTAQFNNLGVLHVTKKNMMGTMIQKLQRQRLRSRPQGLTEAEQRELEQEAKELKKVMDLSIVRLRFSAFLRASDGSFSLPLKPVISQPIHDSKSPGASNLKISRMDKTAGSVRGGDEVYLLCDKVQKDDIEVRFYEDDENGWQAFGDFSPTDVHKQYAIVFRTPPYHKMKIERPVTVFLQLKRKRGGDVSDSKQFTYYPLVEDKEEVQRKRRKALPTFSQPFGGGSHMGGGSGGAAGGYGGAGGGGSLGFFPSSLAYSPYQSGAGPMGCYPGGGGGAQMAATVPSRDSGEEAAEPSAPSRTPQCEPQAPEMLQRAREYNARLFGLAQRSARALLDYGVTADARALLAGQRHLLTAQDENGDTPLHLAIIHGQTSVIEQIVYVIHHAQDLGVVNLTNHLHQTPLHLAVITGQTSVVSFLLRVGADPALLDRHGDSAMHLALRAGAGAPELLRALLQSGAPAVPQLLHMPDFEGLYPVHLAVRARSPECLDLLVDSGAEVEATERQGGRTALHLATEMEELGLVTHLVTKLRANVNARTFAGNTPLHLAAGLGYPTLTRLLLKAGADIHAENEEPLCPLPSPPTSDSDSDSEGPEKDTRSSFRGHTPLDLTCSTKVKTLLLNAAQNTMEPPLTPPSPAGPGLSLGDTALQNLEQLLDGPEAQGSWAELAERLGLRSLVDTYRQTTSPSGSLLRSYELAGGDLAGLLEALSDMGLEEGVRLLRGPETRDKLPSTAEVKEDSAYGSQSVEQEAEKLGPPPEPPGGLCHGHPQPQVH
T1 sequence (Q04206 whole entry, looked up): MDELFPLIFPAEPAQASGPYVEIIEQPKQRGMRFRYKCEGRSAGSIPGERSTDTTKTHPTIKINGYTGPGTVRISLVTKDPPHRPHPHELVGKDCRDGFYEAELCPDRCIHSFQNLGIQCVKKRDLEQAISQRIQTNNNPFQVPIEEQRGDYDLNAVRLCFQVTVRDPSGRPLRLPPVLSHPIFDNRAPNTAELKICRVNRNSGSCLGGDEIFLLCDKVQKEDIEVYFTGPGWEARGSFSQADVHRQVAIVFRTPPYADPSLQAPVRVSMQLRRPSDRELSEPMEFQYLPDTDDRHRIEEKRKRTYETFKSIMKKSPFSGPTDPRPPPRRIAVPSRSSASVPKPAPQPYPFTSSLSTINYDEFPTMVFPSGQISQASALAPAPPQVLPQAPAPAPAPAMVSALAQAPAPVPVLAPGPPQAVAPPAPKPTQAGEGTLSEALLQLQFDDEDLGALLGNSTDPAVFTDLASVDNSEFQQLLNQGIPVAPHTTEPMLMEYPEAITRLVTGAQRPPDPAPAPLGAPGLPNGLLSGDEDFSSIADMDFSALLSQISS

For `CC(=O)N[C@@H]1[C@@H](O[C@H](C)C(=O)N2CCC[C@H]2C(=O)N[C@H](CCC(=O)O)C(N)=O)[C@H](O)[C@@H](CO)O[C@H]1O`, the fold change (FC) in assay [1] turned out to be 1.4; in assay [2] it was 1.3; in assay [3], 1.5.
With `CC(=O)N[C@@H]1[C@@H](O[C@H](C)C(=O)N[C@H](CO)C(=O)N[C@H](CCC(=O)O)C(N)=O)[C@H](O)[C@@H](CO)O[C@H]1O`, the fold change (FC) in assay [1] stood at 1.7; in assay [2], 1.05; in assay [3] it was 3.4.
For `CC(=O)N[C@@H]1[C@@H](O[C@H](C)C(=O)N[C@@H](C)C(=O)N[C@H](CCC(=O)O)C(N)=O)[C@H](O)[C@@H](CN)O[C@H]1O`, the fold change (FC) in assay [4] stood at 9.15. Also, the figures for the Activity in the assay filed under Cavia porcellus [5] and in the assay listed under Cavia porcellus [6] were 17.3 mm and 10.9 mm, respectively.
`CC(=O)N[C@@H]1[C@@H](O[C@H](C)C(=O)N[C@@H](C)C(=O)N[C@H](CCC(=O)O)C(N)=O)[C@H](O)[C@@H](CNC(=O)CCSSCCNC(=O)CCCC[C@@H]2SC[C@@H]3NC(=O)N[C@@H]32)O[C@H]1O`: the fold change (FC) in assay [4] amounted to 7.05.
As to `CC(=O)N[C@@H]1[C@@H](O[C@H](C)C(=O)N[C@@H](C(=O)N[C@H](CCC(=O)O)C(N)=O)C(C)C)[C@H](O)[C@@H](CO)O[C@H]1O`, the fold change (FC) stood at 1 in assay [1], 1.05 in assay [2] and 1.1 in assay [3].
Regarding `CC(=O)N[C@@H]1[C@@H](O[C@H](C)C(=O)N[C@@H](C)C(=O)N[C@@H](CCC(=O)O)C(N)=O)[C@H](O)[C@@H](CN)O[C@H]1O`, the fold change (FC) in assay [4] is 1.1.
On to `CC(=O)N[C@@H]1[C@@H](O[C@H](C)C(=O)N(C)[C@H](C)C(=O)N[C@H](CCC(=O)O)C(N)=O)[C@H](O)[C@@H](CO)O[C@H]1O`, for which the fold change (FC) turned out to be 1.1 in [1], 1.3 in assay [2] and 1.05 in assay [3].
The matching figures for `CC(=O)N[C@@H]1[C@@H](O[C@H](C)C(=O)N[C@H](C)C(=O)N[C@H](CCC(=O)O)C(N)=O)[C@H](O)[C@@H](CO)O[C@H]1O`: 1.3, 1 and 1.6.
For `CC(=O)N[C@@H]1[C@@H](O[C@H](C)C(=O)N(C)[C@@H](C)C(=O)N[C@H](CCC(=O)O)C(N)=O)[C@H](O)[C@@H](CO)O[C@H]1O`, the fold change (FC) in assay [1] is 1.5; in [2], 1.1; in [3], 3.
Consider `CC(=O)N[C@@H]1[C@@H](O[C@H](C)C(=O)N[C@@H](C)C(=O)N[C@@H](CCC(=O)O)C(N)=O)[C@H](O)[C@@H](CNC(=O)CCOCCOCCOCCOCCNC(=O)CCCC[C@@H]2SC[C@@H]3NC(=O)N[C@@H]32)O[C@H]1O`, for which, in [4], the fold change (FC) turned out to be 1.2.
In the case of `CC(=O)N[C@@H]1[C@@H](O[C@H](C)C(=O)NCC(=O)N[C@H](CCC(=O)O)C(N)=O)[C@H](O)[C@@H](CO)O[C@H]1O`, the fold change (FC) was 1.3 in assay [1], 2.8 in assay [2] and 9.8 in [3].
`CC(=O)N[C@@H]1[C@@H](O[C@H](C)C(=O)N[C@@H](C)C(=O)N[C@H](CCC(=O)O)C(N)=O)[C@H](O)[C@@H](CNC(=O)CCOCCOCCOCCOCCNC(=O)CCCC[C@@H]2SC[C@@H]3NC(=O)N[C@@H]32)O[C@H]1O`: in assay [4], the fold change (FC) stood at 9.45.
`CC(=O)N[C@H]1[C@H](OCc2ccccc2)O[C@H](CO)[C@@H](N=[N+]=[N-])[C@@H]1O[C@H](C)C(=O)N[C@@H](C)C(=O)N[C@H](CCC(=O)O)C(N)=O`: the fold change (FC) is 1.3 in assay [7], 1.65 in [8] and 3.15 in assay [9].
Consider `CC(=O)N[C@@H]1[C@@H](O[C@H](C)C(=O)N[C@H](C(=O)N[C@H](CCC(=O)O)C(N)=O)[C@@H](C)O)[C@H](O)[C@@H](CO)O[C@H]1O`, for which the fold change (FC) in assay [1] is 1.8; in assay [2] it was 1.15; in [3], 5.
`CC(=O)N[C@@H]1[C@@H](O[C@H](C)C(=O)N[C@@H](C)C(=O)N[C@@H](CCC(=O)O)C(N)=O)[C@H](O)[C@@H](CNC(=O)CCOCCOCCOCCOCCOCCOCCOCCOCCOCCOCCOCCOCCNC(=O)CCCC[C@@H]2SC[C@@H]3NC(=O)N[C@@H]32)O[C@H]1O`: the fold change (FC) in assay [4] was found to be 1.05.
The term EC50 denotes the midpoint of the concentration-response curve. High values mean lower potency in that assay, low ones higher potency in that assay. With `CC(=O)N[C@H]1C(O)O[C@H](CO)[C@@H](O)[C@@H]1O[C@H](C)C(=O)N[C@@H](C)C(=O)N[C@H](CCC(=O)O)C(N)=O` (stereo partly drawn) [MURAMYL DIPEPTIDE], the response in assay [10] was half-maximal at 203 nM (EC50). For the same molecule, the fold change (FC) in assay [7] came out at 1.7; in assay [8], 4; in assay [9], 6.55. The values for the Activity in the assay filed under Cavia porcellus [5] and in the assay listed under Cavia porcellus [6] were 21 mm and 19 mm, respectively.
`CC(=O)N[C@@H]1[C@@H](O[C@H](C)C(=O)N[C@@H](C)C(=O)N[C@H](CCC(=O)O)C(N)=O)[C@H](O)[C@@H](CNC(=O)CCOCCOCCOCCOCCOCCOCCOCCOCCOCCOCCOCCOCCNC(=O)CCCC[C@@H]2SC[C@@H]3NC(=O)N[C@@H]32)O[C@H]1O`: the fold change (FC) in assay [4] is 3.
Consider `CC(=O)N[C@@H]1[C@@H](O[C@H](C)C(=O)N[C@@H](C)C(=O)N[C@@H](CCC(=O)O)C(N)=O)[C@H](O)[C@@H](CNC(=O)CCSSCCNC(=O)CCCC[C@@H]2SC[C@@H]3NC(=O)N[C@@H]32)O[C@H]1O`, for which the fold change (FC) in [4] is 0.9.
